The text below walks through data of patent publication US20220046925A1, “METHOD OF CONTROLLING PESTS BY SEED TREATMENT APPLICATION OF A MESOIONIC COMPOUND OR MIXTURE THEREOF” (BASF SE, priority 2018, published 2022).

Where two headings read alike, the source gives them in different places. Marks after values point to notes of the source that are not given here.

Common to all, as to assay type: in vivo
The test system of assay [1] is Phyllotreta striolata. The experiment in a line: Canola seed treatment against striped flea beetle. The note with it: rate 400 (unit not given), 300 g ai/L formulation, cotyledon stage. The procedure: Canola seed treatment: Formulation was diluted in water to make appropriate concentration according to needs. Canola seeds with pre-coating inert ingredients were treated with diluted solution by vortex methods. Treated seeds were dried in ventilating chemical hood. After dry, three seeds were planted per pot (2×2 inch) at a depth of 1 cm, which were filled with Patio sand and watered prior to treatment and planting. The pots were arranged in a completely randomized design, kept in the greenhouse, and automatically top-watered and fertilized daily (NPK 16-4-20-3(Ca)-1(Mg)). At the cotyledon stage [˜7 days after treatment (DAT)], plants were thinned to 1 plant per pot. One set of plants was infested at the cotyledon stage and another set at the first true-leaf stage. Both cotyledons of a single plant were excised, and true leaves were sampled using a ⅝″ (1.59-cm) diameter leaf disc. Leaf samples were placed on a piece of 47-mm filter paper moistened with 0.225 mL distilled water in a 50-mm Petri dish. Five flea beetles were then infested into the petri dish. The dishes were held in an incubator at 27° C., 60% RH, and a 16L:8D light cycle. Five days after infestation (DAI), the numbers of live, moribund, and dead flea beetles were recorded, as well as % feeding damage (via visual estimate). […] Percent mortality was calculated for each treatment, with moribund insects classified as alive.

Assay [2] concerns Rhopalosiphum padi. Description: Barley seed treatment against bird cherry oat aphid. The note with it: 100 g ai/100 kg seed, first true leaf stage. On the procedure: Barley seed treatment: Technical material was dissolved in DMSO. Twenty barely seeds were treated with a vortex method and planted in a pot (2×2 inch) filled with Rediearth soil. One seed was planted per pot and the pots were arranged in a completely randomized design, held in the greenhouse, and top-watered and fertilized daily. Four seedlings were taken from each cotyledon & true leaf treatment samples. DMSO solvent blank were used as positive and negative treatments, respectively. The true leaf stage was infested 14 days after planting (DAP). Ten bird cherry-oat aphids of mixed stages were transferred individually to each plant with a paint brush. Six replicates were set up for each treatment. After infestation, plants were kept on a light cart at room temperature and bottom watered until evaluated. The number of live aphids at 4 days after infestation (4DAI) was recorded, and means were calculated for each treatment. Percent control was calculated as the percent reduction in live aphids relative to the solvent blank.

Assay [3] relates to Myzus persicae. The experiment in a line: Sugarbeet seed treatment against green peach aphid. The procedure:
Sugarbeet seed treatment: Seeds were treated in according to desired rates. Seeds were planted (one per pot) at a depth of 1.5 cm in 3×3 in (58.0644 cm2) pots that were filled with RediEarth soil and moistened prior to planting. Pots were held in a completely randomized design in the greenhouse and automatically top watered and fertilized [NPK 16-4-20-3(Ca)-1(Mg)] daily (4 min, 4× a day) until infestation. A set of plants was infested 7, 14, 21 and 28 days after treatment (DAT). Thirty aphids were transferred individually to each plant with a paint brush. After infestation, plants were kept on a light cart at room temperature with continuous light and bottom watered until evaluation. Six days after infestation (DAI), the number of live aphids was recorded, and means were calculated for each treatment. Percent control was calculated as the percent reduction in live aphids relative to the solvent blank.

The test system of assay [4] is Elasmopalpus sp. The experiment in a line: Soybean seed treatment against lesser corn stalkborer (cage). On the procedure: Soybean seed treatment: Soybean seeds were treated with Compound I-R-1. The treated seeds were sown inside an enclosed cage, in two lines at 29 seeds/cage. Thirty-five 3rd instar larvae of Elasmopalpus sp were introduced into each cage at six days after sowing. The number of dead and live plants were counted periodically.

Assay [5] has as its system Dichelops melacanthus. Description: Corn seed treatment against green belly stink bug (cage). The note with it: for mortality at 30 g/ha: Dichelops melacanthus. The procedure: Corn seed treatment: Corn seeds were treated with Compound I-R-1. The treated seeds were sown inside an enclosed cage, at 16 seeds/cage. Twenty-four stinkbugs, were introduced into each cage. The number of dead and live stinkbugs were counted periodically.

Assay [6] deals with Frankliniella fusca. Description: Cotton seed treatment against tobacco thrips (field). On the procedure:
Cotton seed treatment: Field studies were carried out against tobacco thrips using cotton seeds treated with 0.375 mg ai/seed of Compound I-R-1. Treated Seeds were sown in 30 sq m plots. There were 4 replications for each treatment. Feeding damage was assessed at 5 and 7 days after planting (DAP).

The subject of assay [7] is Frankliniella fusca. Description: Peanut seed treatment against tobacco thrips (field). The procedure: Peanut seed treatment: Field trials were laid out. Treated peanut seeds were sown in 8 sq m plots using 4 replications. Feeding damage was assessed at 28 and 35 days after treatment.
Assay [8] relates to Leptinotarsa decimlineata. The experiment in a line: Potato seed piece treatment against Colorado potato beetle. The procedure: 8. Potato—Colorado Potato Beetle (Leptinotarsa decimlineata) Potato seed piece treatment: Seed potatoes were treated by spraying. After application, potatoes were allowed to dry prior to planting. The plots were laid out in 6-meter rows with 4 replications. Feeding damage assessments were taken at 42 and 50 days after planting.

For assay [9], the system named is Rhopalosiphum padi (RHOPPA). Description: Barley seed treatment with mixtures against Rhopalosiphum padi (Colby synergy). The note with it: cotyledon stage, 4 days after infestation. From the text: (§1) When the observed combined control effect is greater than the expected combined control effect (E), then the combined effect is synergistic.
(§2) Sub-lethal rates were predetermined by rate rundown. Formulations were combined and diluted in water and applied to barley seeds which were allowed to dry. Seeds were then planted and grown in a greenhouse. At the cotyledon stage, bird cherry-oat aphids (Rhopalosiphum padi) of mixed stages were infested onto each plant and held under laboratory conditions. Replication was 6×. Four days after infestation, the number of live aphids on each plant was recorded, and means were calculated for each treatment. Percent control was calculated as the percent reduction in live aphids relative to the solvent blank (Sun-Shepard method).

In assay [10] the test system is Frankliniella occidentalis (FRANOC). The experiment in a line: Cotton seed treatment with mixtures against Frankliniella occidentalis (Colby synergy). The following applies: 7DAI.
Source text: as §1
as §2, with “cotton” for “barley”, “western flower thrips (Frankliniella occidentalis) adults” for “bird cherry-oat aphids (Rhopalosiphum padi) of mixed stages”, “5×. Seven and 14” for “6×. Four”, “percent damage” for “the number of live aphids on each plant”, “visually assessed,” for “recorded,”

As a reminder, the mortality is the share of the test organisms that died. As for `C[n+]1c([O-])c(-c2ccccc2)c(=O)n2c1SC[C@@H]2c1cnc(Cl)s1` (single isomer, unassigned) [Compound I-R-1], the “Mean % feeding damage (5DAI, 13DAP)” value in assay [1] (5DAI, 13DAP) is 19^b %. For the same compound, in assay [1] (relative to solvent blank), the “Mean % Feeding Damage Reduction Relative to SB” value came to 58%. Further, in assay [2], the “Mean % Population Reduction (18 DAP, 4DAI)” value is ≥90%. For the same compound, the “Mean % Population Reduction Relative to SB @ 6DAI, 7 DAP” value in assay [3] (sugar beet seed treatment, 80 g ai/1 kg seed, infested 7 DAP, 6DAI) is 100%. Also, the “Mean % Population Reduction Relative to SB @ 6DAI, 14 DAP” value in assay [3] (sugar beet seed treatment, 80 g ai/1 kg seed, infested 14 DAP, 6DAI) is listed as ≥90%. Moreover, the “Mean % Population Reduction Relative to SB @ 6DAI, 21 DAP” value in assay [3] (sugar beet seed treatment, 80 g ai/1 kg seed, infested 21 DAP, 6DAI) is on record as ≥90%. The “Mean % Population Reduction Relative to SB @ 6DAI, 28 DAP” value in assay [3] (sugar beet seed treatment, 80 g ai/1 kg seed, infested 28 DAP, 6DAI) is on record as ≥90%. The “activity against green peach aphid by sugarbeet seed treatment (in words)” value in assay [3] (sugarbeet seed treatment) is listed as “excellent activity”. Besides, the “activity as far as 4 weeks after plant (in words)” value in assay [3] (sugarbeet seed treatment, 4 weeks after plant) was “excellent activity”. Moreover, in [4], the “efficacy against Elasmopalpus sp. in terms of plant protection (in words)” value is reported as “good efficacy”. For the same compound, the “Number of dead plants/plot, A03” value in [4] (50 g ai/ha, assessment A03) is 1.50 a. In addition, the “Number of dead plants/plot, A07” value in assay [4] (50 g ai/ha, assessment A07) worked out at 4.50 ab. The “Number of dead plants/plot, A14” value in assay [4] (50 g ai/ha, assessment A14) is on record as 5.25 b. In addition, the “Number of dead plants/plot, A21” value in [4] (50 g ai/ha, assessment A21) stood at 6.75 b. The mortality at 30 g/ha in [5] (read-out: Percentage mortality (%), A01) is 5.4%; in [5] (read-out: Percentage mortality (%), A03), 24.6%; in assay [5] (read-out: Percentage mortality (%), A07), 13%; in assay [5] (read-out: Percentage mortality (%), A14), 35.3%; in [5] (read-out: Percentage mortality (%), A21) it was 61.5%. In assay [5] (corn seed treatment), the “efficacy against green belly stink bug (in words)” value was “good efficacy”. The “efficacy against F. fusca in terms of reduction in feeding damage (in words)” value is reported as “excellent efficacy” in assay [6] and “good efficacy” in assay [7]. The “Feeding damage (%), 5 DAP” value in [6] (0.375 mg ai/seed, field, 5 DAP) is 6.0 b %. Besides, the “Feeding damage (%), 7 DAP” value in assay [6] (0.375 mg ai/seed, field, 7 DAP) turned out to be 12.5 c %. In addition, the “Feeding damage (%), A28” value in assay [7] (0.68 mg ai/seed, field, 28 days after treatment) worked out at 13.0 b %. In addition, the “Feeding damage (%), A35” value in [7] (0.68 mg ai/seed, field, 35 days after treatment) was 13.5 b %. Besides, in [8], the “efficacy against L. decimlineata regarding reduction in feeding damage (in words)” value was “good efficacy”. Also, the “Feeding damage, A42” value in assay [8] (400 g ai/ha, 42 days after planting) was found to be 3.0 b. For the same compound, the “Feeding damage, A50” value in assay [8] (400 g ai/ha, 50 days after planting) came out at 11.3 bc. Also, the “% activity (population reduction), solo application” value (“% activity (population reduction)” for short) in [9] (5 g ai/100 kg seeds) was 46%; in [9] (14 g ai/100 kg seeds) it was 59%. Also, in assay [10] (use rate 0.375 (head: g ai/100 kg seeds)), the “% activity (feeding damage reduction), solo application” value was 19%.
For `CCN(C(=O)c1cnn(C(C)C(C)C)c1C)c1ccnnc1` (stereo not drawn) [Dimpropyridaz, 1-(1,2-dimethylpropyl)-N-ethyl-5-methyl-N-pyridazin-4-yl-pyrazole-4-carboxamide], the “% activity (population reduction)” value was determined as 5% in assay [9] (18 g ai/100 kg seeds) and 11% in assay [9] (46 g ai/100 kg seeds).
`O=C1C=C(N(Cc2ccc(Cl)nc2)CC(F)F)CO1` [Flupyradifurone]: in assay [9] (21 g ai/100 kg seeds), the “% activity (population reduction)” value was 36%.
For `CN1COCN(Cc2cnc(Cl)s2)/C1=N\[N+](=O)[O-]` [thiamethoxam, reference compound], in [10] (use rate 0.300 (head: g ai/100 kg seeds)), the “% activity (feeding damage reduction), solo application” value stood at 37%.
